Patent US10392368B2, “Pyrazolo and triazolo bicyclic compounds as JAK kinase inhibitors” (THERAVANCE BIOPHARMA R&D IP, LLC, priority 2017, dated 2019)

Assays:
JAK1 = target: T1, JAK1 (Homo sapiens, UniProt P23458); assay: Biochemical JAK1 kinase assay (LanthaScreen); conditions: for Ki: read-out: JAK 1 (pKi) (converted)
T1 construct: GST; purchased Life Technologies
Procedure, shortened: (§1)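 Compounds were preincubated with the GST-tagged kinase and GFP-labelled STAT1 peptide for one hour before ATP initiated a one-hour reaction at ambient temperature. Phosphorylation was quantified by TR-FRET with a Tb-labelled pTyr701 antibody. Ki values were derived from IC50 using Cheng-Prusoff.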

JAK2 = target: T2, JAK2 (Homo sapiens, UniProt O60674); assay: Biochemical JAK2 kinase assay (LanthaScreen); conditions: for Ki: read-out: JAK 2 (pKi) (converted)
T2 construct: GST; purchased Life Technologies
T2 sequence (O60674 whole entry): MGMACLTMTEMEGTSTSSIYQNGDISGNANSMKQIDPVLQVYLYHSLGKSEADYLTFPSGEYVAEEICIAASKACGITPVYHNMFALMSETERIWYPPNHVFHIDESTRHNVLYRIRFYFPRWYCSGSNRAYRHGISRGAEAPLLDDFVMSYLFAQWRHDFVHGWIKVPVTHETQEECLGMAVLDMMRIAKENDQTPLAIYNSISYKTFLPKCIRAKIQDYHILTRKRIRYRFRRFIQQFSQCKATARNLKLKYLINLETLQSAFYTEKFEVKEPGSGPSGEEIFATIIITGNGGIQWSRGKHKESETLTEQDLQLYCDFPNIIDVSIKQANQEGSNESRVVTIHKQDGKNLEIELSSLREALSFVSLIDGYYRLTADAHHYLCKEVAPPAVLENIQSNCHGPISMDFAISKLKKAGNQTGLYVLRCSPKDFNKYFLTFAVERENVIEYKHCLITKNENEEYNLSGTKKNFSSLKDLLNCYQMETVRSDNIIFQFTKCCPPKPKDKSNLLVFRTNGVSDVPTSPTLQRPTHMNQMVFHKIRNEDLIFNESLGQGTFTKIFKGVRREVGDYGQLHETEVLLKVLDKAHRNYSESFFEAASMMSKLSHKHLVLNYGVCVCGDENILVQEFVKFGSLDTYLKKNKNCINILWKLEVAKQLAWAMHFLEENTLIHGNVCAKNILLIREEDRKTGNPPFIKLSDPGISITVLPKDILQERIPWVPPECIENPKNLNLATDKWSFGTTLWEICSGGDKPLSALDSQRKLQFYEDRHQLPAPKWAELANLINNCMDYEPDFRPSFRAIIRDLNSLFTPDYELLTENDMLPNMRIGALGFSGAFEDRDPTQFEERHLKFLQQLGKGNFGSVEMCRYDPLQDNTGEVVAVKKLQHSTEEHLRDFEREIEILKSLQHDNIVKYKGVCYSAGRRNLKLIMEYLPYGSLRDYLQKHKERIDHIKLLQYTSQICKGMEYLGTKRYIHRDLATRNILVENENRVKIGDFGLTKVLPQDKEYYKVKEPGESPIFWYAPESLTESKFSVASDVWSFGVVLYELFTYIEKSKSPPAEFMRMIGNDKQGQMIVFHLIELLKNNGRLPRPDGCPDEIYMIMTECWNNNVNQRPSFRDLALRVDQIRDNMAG
Procedure, shortened: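 GST-tagged recombinant JAK2 pre-incubated 1 h at ambient temperature with compound and GFP-STAT1 peptide in HEPES pH 7.5/MgCl2 buffer, then ATP added for a 1 h reaction with 1% DMSO. TR-FRET read after EDTA and Tb-anti-pSTAT1 (pTyr701) addition; IC50 from 4-parameter fit, converted to pKi by Cheng-Prusoff.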

Tyk2 = target: T3, Tyk2 (Homo sapiens, UniProt P29597); assay: Biochemical Tyk2 kinase assay (LanthaScreen); conditions: for Ki: read-out: Tyk 2 (pKi) (converted)
T3 construct: GST; purchased Life Technologies
T3 sequence (P29597 whole entry): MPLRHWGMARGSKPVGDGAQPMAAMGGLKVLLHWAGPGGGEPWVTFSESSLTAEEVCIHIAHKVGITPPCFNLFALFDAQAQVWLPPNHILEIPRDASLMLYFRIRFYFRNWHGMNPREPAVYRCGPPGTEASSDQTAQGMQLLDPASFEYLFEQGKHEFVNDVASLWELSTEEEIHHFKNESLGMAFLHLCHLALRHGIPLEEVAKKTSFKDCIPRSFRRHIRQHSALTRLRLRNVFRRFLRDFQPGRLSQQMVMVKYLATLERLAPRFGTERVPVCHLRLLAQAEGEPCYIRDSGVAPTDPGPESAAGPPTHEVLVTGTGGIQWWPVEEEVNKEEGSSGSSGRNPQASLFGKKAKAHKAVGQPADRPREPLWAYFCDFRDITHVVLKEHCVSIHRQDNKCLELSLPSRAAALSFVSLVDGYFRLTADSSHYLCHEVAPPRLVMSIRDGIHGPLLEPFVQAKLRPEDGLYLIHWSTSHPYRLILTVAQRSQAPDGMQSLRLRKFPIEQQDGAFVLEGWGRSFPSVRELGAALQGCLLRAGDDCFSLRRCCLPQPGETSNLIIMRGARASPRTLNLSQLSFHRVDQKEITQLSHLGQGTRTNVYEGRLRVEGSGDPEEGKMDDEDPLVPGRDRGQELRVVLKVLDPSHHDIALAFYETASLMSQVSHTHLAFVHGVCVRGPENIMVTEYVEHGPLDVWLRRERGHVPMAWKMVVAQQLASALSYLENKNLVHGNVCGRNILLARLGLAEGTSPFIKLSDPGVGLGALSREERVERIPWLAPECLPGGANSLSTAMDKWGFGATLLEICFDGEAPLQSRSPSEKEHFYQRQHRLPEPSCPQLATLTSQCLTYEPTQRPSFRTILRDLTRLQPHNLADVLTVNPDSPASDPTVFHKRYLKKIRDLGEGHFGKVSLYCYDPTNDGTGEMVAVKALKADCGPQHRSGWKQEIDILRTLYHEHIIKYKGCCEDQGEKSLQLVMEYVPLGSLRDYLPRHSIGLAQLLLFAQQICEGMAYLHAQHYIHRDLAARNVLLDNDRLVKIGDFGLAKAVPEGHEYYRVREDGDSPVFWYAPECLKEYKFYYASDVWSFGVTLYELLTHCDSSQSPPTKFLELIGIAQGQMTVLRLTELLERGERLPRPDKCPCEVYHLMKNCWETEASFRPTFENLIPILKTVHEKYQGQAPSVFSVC
Procedure, shortened: as §1

[1] = tested on: IL-2 stimulated pSTAT5 in Tall-1 T cells; assay: Cellular JAK3 potency assay: inhibition of IL-2 stimulated pSTAT5 in Tall-1 T cells; type: cell-based, human; conditions: for IC50: Homo sapiens, TALL-1, IL-2 stimulated pSTAT5 in Tall-1 T cells, read-out: Tall-1 (pIC50) (converted); for Tall-1 (pIC50): IL-2 stimulated pSTAT5 in Tall-1 T cells
Procedure, shortened: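 Tall-1 human T cells (45,000/well) in phenol red-free DMEM with 10% FBS were preincubated with compound 1 h at 37 °C, then stimulated with IL-2 (final 300 ng/ml) for 30 min. Lysate pSTAT5 read by AlphaLisa; IC50 from inhibition curves, reported as pIC50 (mean±SD).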

JAK3 = target: T4, JAK3 (Homo sapiens, UniProt P52333); assay: Biochemical JAK3 kinase assay (LanthaScreen); parameters: GST; purchased Life Technologies; conditions: for Ki: read-out: JAK 3 (pKi) (converted); for JAK3 (pKi)-JAK1 (pKi): selectivity: difference of pKi JAK3 and pKi JAK1
T4 sequence (P52333 1-1124): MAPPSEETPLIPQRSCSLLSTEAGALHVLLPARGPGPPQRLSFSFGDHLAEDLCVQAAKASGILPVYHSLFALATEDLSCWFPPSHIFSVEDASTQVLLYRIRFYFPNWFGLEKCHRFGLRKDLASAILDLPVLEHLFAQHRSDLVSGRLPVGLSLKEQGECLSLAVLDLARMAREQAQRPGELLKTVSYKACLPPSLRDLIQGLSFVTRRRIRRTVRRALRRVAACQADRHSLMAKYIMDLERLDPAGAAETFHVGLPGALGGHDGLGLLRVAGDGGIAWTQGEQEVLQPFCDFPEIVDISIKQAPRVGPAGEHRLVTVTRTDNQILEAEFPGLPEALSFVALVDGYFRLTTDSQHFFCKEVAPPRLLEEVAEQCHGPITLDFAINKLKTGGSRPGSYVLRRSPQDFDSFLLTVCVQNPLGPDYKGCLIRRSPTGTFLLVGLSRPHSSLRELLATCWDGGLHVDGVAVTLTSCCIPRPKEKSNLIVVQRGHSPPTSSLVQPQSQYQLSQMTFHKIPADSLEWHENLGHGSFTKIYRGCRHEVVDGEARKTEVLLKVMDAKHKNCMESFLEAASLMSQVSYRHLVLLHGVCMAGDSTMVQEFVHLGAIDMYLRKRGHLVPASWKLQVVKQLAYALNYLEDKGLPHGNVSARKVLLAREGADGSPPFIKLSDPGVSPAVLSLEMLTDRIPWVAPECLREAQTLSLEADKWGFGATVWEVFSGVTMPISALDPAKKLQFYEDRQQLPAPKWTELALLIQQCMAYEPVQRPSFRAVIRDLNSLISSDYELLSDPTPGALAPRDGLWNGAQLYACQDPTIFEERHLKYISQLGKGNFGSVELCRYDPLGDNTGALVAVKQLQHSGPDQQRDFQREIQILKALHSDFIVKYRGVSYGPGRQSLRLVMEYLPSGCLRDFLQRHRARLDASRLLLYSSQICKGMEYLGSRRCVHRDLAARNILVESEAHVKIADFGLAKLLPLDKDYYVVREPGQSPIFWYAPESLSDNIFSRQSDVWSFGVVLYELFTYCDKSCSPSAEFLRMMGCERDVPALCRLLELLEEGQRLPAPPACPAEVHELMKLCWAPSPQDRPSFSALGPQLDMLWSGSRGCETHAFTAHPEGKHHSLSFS
Procedure, shortened: as §1

T1 sequence (P23458 whole entry): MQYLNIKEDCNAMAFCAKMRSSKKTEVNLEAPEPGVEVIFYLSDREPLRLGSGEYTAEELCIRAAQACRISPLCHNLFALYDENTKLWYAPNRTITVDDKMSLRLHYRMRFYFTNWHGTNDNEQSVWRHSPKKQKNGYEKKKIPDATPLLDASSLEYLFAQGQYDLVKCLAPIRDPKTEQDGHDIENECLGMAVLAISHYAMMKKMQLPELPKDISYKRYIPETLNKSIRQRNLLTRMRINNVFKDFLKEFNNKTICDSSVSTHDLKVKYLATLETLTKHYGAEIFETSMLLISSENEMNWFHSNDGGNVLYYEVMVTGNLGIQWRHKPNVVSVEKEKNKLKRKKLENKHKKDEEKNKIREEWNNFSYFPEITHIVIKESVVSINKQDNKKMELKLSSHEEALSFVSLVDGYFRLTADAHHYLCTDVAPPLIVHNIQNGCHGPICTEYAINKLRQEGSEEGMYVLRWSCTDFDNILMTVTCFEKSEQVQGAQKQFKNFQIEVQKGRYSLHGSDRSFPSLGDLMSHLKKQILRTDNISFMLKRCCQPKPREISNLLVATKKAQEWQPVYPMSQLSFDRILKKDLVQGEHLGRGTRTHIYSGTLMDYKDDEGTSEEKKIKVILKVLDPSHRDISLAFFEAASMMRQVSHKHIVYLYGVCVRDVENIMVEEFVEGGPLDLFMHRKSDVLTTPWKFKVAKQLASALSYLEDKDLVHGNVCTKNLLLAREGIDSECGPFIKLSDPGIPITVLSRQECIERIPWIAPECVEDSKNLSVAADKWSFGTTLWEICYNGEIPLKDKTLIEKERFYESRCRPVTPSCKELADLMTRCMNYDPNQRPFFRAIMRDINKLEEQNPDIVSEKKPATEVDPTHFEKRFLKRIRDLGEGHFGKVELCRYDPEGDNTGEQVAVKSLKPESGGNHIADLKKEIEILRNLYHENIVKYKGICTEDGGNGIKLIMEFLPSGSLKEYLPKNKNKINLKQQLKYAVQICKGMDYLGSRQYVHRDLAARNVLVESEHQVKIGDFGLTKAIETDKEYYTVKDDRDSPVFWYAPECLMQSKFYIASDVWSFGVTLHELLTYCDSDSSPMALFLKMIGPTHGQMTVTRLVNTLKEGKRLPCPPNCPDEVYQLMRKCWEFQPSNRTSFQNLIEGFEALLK

Row | SMILES | Ki (JAK1) | Ki (JAK2) | Ki (Tyk2) | IC50 [1] | Ki (JAK3) | JAK3 (pKi)-JAK1 (pKi) (JAK3) | JAK 1 (pKi) (JAK1) | JAK 2 (pKi) (JAK2) | Tyk 2 (pKi) (Tyk2) | Tall-1 (pIC50) [1] | JAK 3 (pKi) (JAK3)
1 | CN(C)C/C=C/C(=O)N1CC(F)(COc2nc(-c3ccc(O)c(Cl)c3)nc3[nH]ncc23)C1 [Compound 3-50] | > 100 nM | > 100 nM | > 100 nM | 31.6 to 200 nM | 0.1 to 1 nM | A (a value of 3 or above) |  |  |  |  | 
2 | CN(C)C/C=C/C(=O)N1CC(F)(COc2nc(-c3ccc(O)c(F)c3)nc3[nH]ncc23)C1 [Compound 3-51] |  |  |  |  |  | A (a value of 3 or above) | E (a pKi value of 7 or below (Ki of 100 nM or above)) | E (a pKi value of 7 or below (Ki of 100 nM or above)) | E (a pKi value of 7 or below (Ki of 100 nM or above)) | C (a pIC50 value between 6 and 6.7 (IC50 between 1 μM and 200 nM)) | B (a pKi value between 9 and 10 (Ki between 1 nM and 0.1 nM))
3 | CN(C)C/C=C/C(=O)N1CC(F)(COc2cc(-c3ccc(O)c(Cl)c3)nc3[nH]ncc23)C1 [Compound 3-52] |  |  |  |  |  | A (a value of 3 or above) | E (a pKi value of 7 or below (Ki of 100 nM or above)) | E (a pKi value of 7 or below (Ki of 100 nM or above)) | E (a pKi value of 7 or below (Ki of 100 nM or above)) | B (a pIC50 value between 6.7 (included) and 7.5 (IC50 between 200 nM and 32 nM)) | B (a pKi value between 9 and 10 (Ki between 1 nM and 0.1 nM))
4 | CN(C)C/C=C/C(=O)N1CC(F)(COc2cc(-c3ccc(O)c(F)c3)nc3[nH]ncc23)C1 [Compound 3-53] | > 100 nM | > 100 nM | > 100 nM | 31.6 to 200 nM | 0.1 to 1 nM | A (a value of 3 or above) |  |  |  |  | 
5 | C=CC(=O)N1CC(F)(COc2cc(-c3ccc(O)c(F)c3)nc3[nH]ncc23)C1 [Compound 3-54] |  |  |  |  |  | A (a value of 3 or above) | E (a pKi value of 7 or below (Ki of 100 nM or above)) | E (a pKi value of 7 or below (Ki of 100 nM or above)) | E (a pKi value of 7 or below (Ki of 100 nM or above)) | A (a pIC50 value≥7.5 (IC50≤32 nM)) | B (a pKi value between 9 and 10 (Ki between 1 nM and 0.1 nM))
6 | C=CC(=O)N1CC(C)(COc2nc(-c3ccc(O)cc3)cc3[nH]ncc23)C1 [Compound 3-56] | > 100 nM | 10 to 100 nM | > 100 nM | < 31.6 nM | < 0.1 nM | A (a value of 3 or above) |  |  |  |  | 
7 | C=CC(=O)N1CC(C)(COc2cc(-c3ccc(O)cc3)nc3[nH]ncc23)C1 [Compound 3-58] |  |  |  |  |  | A (a value of 3 or above) | E (a pKi value of 7 or below (Ki of 100 nM or above)) | E (a pKi value of 7 or below (Ki of 100 nM or above)) | E (a pKi value of 7 or below (Ki of 100 nM or above)) | B (a pIC50 value between 6.7 (included) and 7.5 (IC50 between 200 nM and 32 nM)) | A (a pKi value≥10 (Ki≤0.1 nM))
8 | C=CC(=O)N1CC(C)(COc2nc(-c3ccc(O)c(F)c3)cc3[nH]ncc23)C1 [Compound 3-59] |  |  |  |  |  | B (a value of 2.3 to 3) | E (a pKi value of 7 or below (Ki of 100 nM or above)) | D (a pKi value between 7 and 8 (Ki between 100 nM and 10 nM)) | E (a pKi value of 7 or below (Ki of 100 nM or above)) | A (a pIC50 value≥7.5 (IC50≤32 nM)) | B (a pKi value between 9 and 10 (Ki between 1 nM and 0.1 nM))
9 | C=C(CN(C)C)C(=O)N1CC(COc2nc(-c3ccc(O)c(Cl)c3)nc3[nH]ncc23)C1 [Compound 3-60] |  |  |  |  |  | A (a value of 3 or above) | E (a pKi value of 7 or below (Ki of 100 nM or above)) | E (a pKi value of 7 or below (Ki of 100 nM or above)) | E (a pKi value of 7 or below (Ki of 100 nM or above)) | B (a pIC50 value between 6.7 (included) and 7.5 (IC50 between 200 nM and 32 nM)) | A (a pKi value≥10 (Ki≤0.1 nM))
10 | CCC1(COc2nc(-c3ccc(O)cc3)cc3[nH]ncc23)CN(C(=O)/C=C/CN(C)C)C1 [Compound 3-61] |  |  |  |  |  | A (a value of 3 or above) | E (a pKi value of 7 or below (Ki of 100 nM or above)) | D (a pKi value between 7 and 8 (Ki between 100 nM and 10 nM)) | E (a pKi value of 7 or below (Ki of 100 nM or above)) | A (a pIC50 value≥7.5 (IC50≤32 nM)) | A (a pKi value≥10 (Ki≤0.1 nM))
11 | C=CC(=O)N1CC(CC)(COc2nc(-c3ccc(O)cc3)cc3[nH]ncc23)C1 [Compound 3-62] |  |  |  |  |  | A (a value of 3 or above) | E (a pKi value of 7 or below (Ki of 100 nM or above)) | D (a pKi value between 7 and 8 (Ki between 100 nM and 10 nM)) | E (a pKi value of 7 or below (Ki of 100 nM or above)) | A (a pIC50 value≥7.5 (IC50≤32 nM)) | B (a pKi value between 9 and 10 (Ki between 1 nM and 0.1 nM))
12 | C=CC(=O)N1CC(CC)(COc2nc(-c3ccc(O)cc3)nc3[nH]ncc23)C1 [Compound 3-63] |  |  |  |  |  | A (a value of 3 or above) | E (a pKi value of 7 or below (Ki of 100 nM or above)) | E (a pKi value of 7 or below (Ki of 100 nM or above)) | E (a pKi value of 7 or below (Ki of 100 nM or above)) | B (a pIC50 value between 6.7 (included) and 7.5 (IC50 between 200 nM and 32 nM)) | A (a pKi value≥10 (Ki≤0.1 nM))
13 | C=CC(=O)N1CC(CC)(COc2nc(-c3ccc(O)c(Cl)c3)cc3[nH]ncc23)C1 [Compound 3-66] |  |  |  |  |  | A (a value of 3 or above) | E (a pKi value of 7 or below (Ki of 100 nM or above)) | E (a pKi value of 7 or below (Ki of 100 nM or above)) | E (a pKi value of 7 or below (Ki of 100 nM or above)) | A (a pIC50 value≥7.5 (IC50≤32 nM)) | B (a pKi value between 9 and 10 (Ki between 1 nM and 0.1 nM))
14 | C=CC(=O)N1CC(CC)(COc2nc(-c3ccc(O)c(F)c3)nc3[nH]ncc23)C1 [Compound 3-67] | > 100 nM | > 100 nM | > 100 nM | 31.6 to 200 nM | 0.1 to 1 nM | A (a value of 3 or above) |  |  |  |  | 
15 | CCC1(COc2cc(-c3ccc(O)c(Cl)c3)nc3[nH]ncc23)CN(C(=O)/C=C/CN(C)C)C1 [Compound 3-68] |  |  |  |  |  | B (a value of 2.3 to 3) | D (a pKi value between 7 and 8 (Ki between 100 nM and 10 nM)) | E (a pKi value of 7 or below (Ki of 100 nM or above)) | E (a pKi value of 7 or below (Ki of 100 nM or above)) | C (a pIC50 value between 6 and 6.7 (IC50 between 1 μM and 200 nM)) | B (a pKi value between 9 and 10 (Ki between 1 nM and 0.1 nM))
